The text below walks through data of patent US6716873B1, “Tocopherol ester compounds” (Yasoo Health Inc., priority 2003, dated 2004).

In data set [1] the test system is MCF-7 cells. The experiment in a line: Cell growth/viability assay with tetrazolium salt WST-8 (OD 450 nm). The settings on record: for inhibitory effect on cell viability (FIG. 2), in words: equimolar concentrations, incubation up to 10 days. The method, then:
(§1) Experimental media. […] Stock solutions were maintained at 4° C.
Equimolar concentrations of the different compounds were added on day 2 and allowed for incubation for the indicated time period.
Background: Formazan colour is commonly taken as a measure of viable cells.

Data set [2] has as its system MCF-7 cells. The experiment in a line: Cell viability assay, crystal violet staining (OD620 of cell lysates). The settings on record: for OD620 of the cell lysates (crystal violet) / effect on cell growth compared to control (FIG. 1) / statistical significance of decrease in cell growth: MCF-7; for OD620 of the cell lysates (crystal violet): equimolar concentrations corresponding to 10 μg/mL of VES; for effect on cell growth compared to control (FIG. 1): equimolar concentrations; for statistical significance of decrease in cell growth: Day 7, day of maximal proliferation rate. On the procedure:
as §1
Cells were plated in triplicate in 96-well plates and allowed to attaach and reach confluence for 48 hours. On Day 2 test compounds were added at equimolar concentrations corresponding to 10 μg/mL of VES. Cell viability was determined at the specified times by staining with crystal violet and measuring the OD620 of the cell lysates.

The next data set has as its system MDA-MB-231 cells. The data set is described as follows: Cell growth/viability assay with tetrazolium salt WST-8 (OD 450 nm). Particulars: MDA-MB-231 (ER-negative); after 6 days of incubation.
Data set [3] can be described thus: Chemical stability (solid state, organic solvent, aqueous base by 1H NMR). The data set is classed as physicochemical. Particulars: pH=9, room temperature, one day.
The nature of data set [4]: Stability in the culture media by TLC.
The mark [5] stands for this setting: Day 0, equimolar concentrations, added on day 2.
Setting [6] is: Day 2, equimolar concentrations.
[7] abbreviates: Day 4, equimolar concentrations.
Setting [8] is: Day 7, equimolar concentrations.
[9] abbreviates: Day 9, equimolar concentrations.
[10] abbreviates: Day 11, equimolar concentrations.

Procedure for MDA-MB-231 cells: Cultures of MDA-MB-231 cells were maintained at 37° C. in minimum essential medium containing 3.7 g of NaHCO3 per liter of water, supplemented with 10% (v/v) Fetal Bovine Serum and 1% Penicillin/Streptomycin (broad spectrum antibiotics). […] The media were equilibrated with a humidified atmosphere of 5% CO2. Stock cultures were seeded at a density of 200×10^3 cells/mL and allowed to multiply to confluence. The cells were grown at 37° C. in a humidified atmosphere containing 5% CO2 and passaged when confluent using 0.25% trypsin.
The same amount of ethanol was added to the control samples. Stock solutions were maintained at 4° C.
Cell viability assays. The first method employs a novel tetrazolium salt, WST-8 [2-methoxy-4-nitrophenyl)-3(4-nitrophenyl)-5-(2,4-disulphophenyl)-2-H-tetrazolium, monosodium salt] which produces a highly water-soluble formazan dye generated by dehydrogenases which are active in living cells in a culture medium. For initial growth assays, cell suspensions (5000 cells/100 μL/well) were dispensed onto 96-well microtiter plates and incubated at 37° C., 5% CO2 for 1-12 days. At distinct time intervals 10 μL of the WST-8 solution was added to each well and allowed to incubate for 2-4 hrs. A yellow formazan dye is developed only in living cells. […] The absorbance at 450 nm was measured using a microplate reader (EMS Reader with dispenser, Genesys Software) with a reference wavelength at 600 nm. […] For both methods, cell suspensions (5000 cells/100 μ□L culture media) were initially inoculated on a 96-well microplate and preincubated in an incubator for 48 hrs to allow attachment 10 μL of the stock solution of each compound was added so that the final concentration was equimolar for each compound corresponding to 10 µg/mL of VES.
Comparison of the effect of the different compounds on absorbance at the appropriate wavelength was made by analysis of variance (ANOVA).
Cells were seeded in triplicate in 96-well plates and incubated for 48 hrs to allow attachment. The different compounds were added at the indicated concentrations and allowed to incubate for an additional 4 days. The indicated incubation time previously was determined in a growth assay ats the time of maximal proliferation rate. Tetrazolium salt WST-8 (10 μL) was added to each well, the cells were allowed to incubate for 2 hours and optical density (OD) measurements of the yellow formazan dye were made at 450 nm.

`O=C(O)CC([Se]c1ccccc1)C(=O)O` (stereo not shown) [PSSA, phenylselanyl-succinic acid]: the “optical density (OD) of formazan dye at 450 nm (WST-8)” value (from here on “optical density (OD) of formazan dye”) with MCF-7 cells [1] (setting [5]) is recorded as 0; in the data set on MCF-7 cells [1] (setting [6]) it was 0.9149; in the data set on MCF-7 cells [1] (setting [7]), 2.019; in the data set on MCF-7 cells [1] (setting [8]), 3.618; with MCF-7 cells [1] (setting [9]), 3.541; with MCF-7 cells [1] (setting [10]) it was 3.451. In the data set with MCF-7 cells [1], the “inhibitory effect on cell viability (FIG. 2), in words” value (“inhibitory effect on cell viability” for short) is “no inhibitory effect over the first 7 days of incubation”. Also, the “OD620 of the cell lysates (crystal violet)” value (from here on “OD620 of the cell lysates”) was determined as 0 with MCF-7 cells [2] (Day 0, added on Day 2); 0.3842 with MCF-7 cells [2] (Day 2); 1.218 in the data set on MCF-7 cells [2] (Day 5); 1.693 in the data set on MCF-7 cells [2] (Day 7); 1.495 in the data set on MCF-7 cells [2] (Day 9). In addition, the “effect on cell growth compared to control (FIG. 1)” value with MCF-7 cells [2] is given as “no measurable effect compared to control”. The “inhibition of cell growth” value in the data set with MDA-MB-231 cells is 31%. Moreover, in data set [3], the “decomposition of aqueous solution (1H NMR)” value is recorded as “less than 5%”. The “stability in the culture media (TLC)” value in data set [4] is “stable for more than one weak”.
With `Cc1c(C)c2c(c(C)c1OC(=O)C(CC(=O)O)[Se]c1ccccc1)CC[C@@](C)(CCC[C@H](C)CCC[C@H](C)CCCC(C)C)O2` (stereo partly drawn) [PSSA-α-Toc, 2-phenylselanyl-succinic acid RRR-α-tocopherol ester], the “optical density (OD) of formazan dye” value in the data set with MCF-7 cells [1] (setting [5]) is recorded as 0; in the data set with MCF-7 cells [1] (setting [6]), 0.7806; in the data set on MCF-7 cells [1] (setting [7]) it was 1.4215; in the data set with MCF-7 cells [1] (setting [8]), 2.998; in the data set on MCF-7 cells [1] (setting [9]), 2.812; in the data set on MCF-7 cells [1] (setting [10]), 2.105. Moreover, in the data set with MCF-7 cells [1] (concentration equivalent to IC50), the “cytotoxicity, in words” value was “not cytotoxic”. Moreover, in the data set on MCF-7 cells [1], the “inhibitory effect on cell viability” value is “most potent inhibitory effect throughout the culture period”. The “OD620 of the cell lysates” value with MCF-7 cells [2] (Day 0, added on Day 2) is listed as 0; in the data set with MCF-7 cells [2] (Day 2) it was 0.325; in the data set with MCF-7 cells [2] (Day 5) it was 0.9504; in the data set on MCF-7 cells [2] (Day 7), 1.227; in the data set on MCF-7 cells [2] (Day 9) it was 1.162. Also, in the data set with MCF-7 cells [2], the “statistical significance of decrease in cell growth” value is reported as “statistically significant decrease in cell growth”. The “effect on cell growth compared to control (FIG. 1)” value in the data set with MCF-7 cells [2] was “inhibited cell growth much more effectively”. The “inhibition of cell growth” value in the data set on MDA-MB-231 cells is recorded as 65%. The “stability in the culture media (TLC)” value in data set [4] is recorded as “stable for more than one weak”.
Turning to `O=[Se](=O)([O-])[O-].[Na+].[Na+]` [Na Selenate, sodium selenate, reference compound], the “cytotoxic effect on MCF-7 cells” value in the data set on MCF-7 cells [2] (3.26 μg/mL (equimolar to 10 μg/mL of VES)) is recorded as 100%. The “OD620 of the cell lysates” value is 0 with MCF-7 cells [2] (Day 0, added on Day 2); 0.07344 in the data set on MCF-7 cells [2] (Day 2); 0.06117 in the data set on MCF-7 cells [2] (Day 5); 0.082 in the data set with MCF-7 cells [2] (Day 7); 0.05411 with MCF-7 cells [2] (Day 9). Moreover, the “statistical significance of decrease in cell growth” value in the data set with MCF-7 cells [2] is given as “statistically significant decrease in cell growth”.
In the case of `O=c1[nH]cc(F)c(=O)[nH]1` [5-FU, 5-fluorouracil, reference compound], in the data set with MDA-MB-231 cells, the “inhibition of cell growth” value was determined as 31%.
On to `Cc1c(C)c2c(c(C)c1OC(=O)CCC(=O)O)CC[C@@](C)(CCC[C@H](C)CCC[C@H](C)CCCC(C)C)O2` [VES, RRR-α-tocopheryl succinate, reference compound], for which the “optical density (OD) of formazan dye” value with MCF-7 cells [1] (setting [5]) was 0; in the data set with MCF-7 cells [1] (setting [6]), 0.8005; with MCF-7 cells [1] (setting [7]) it was 1.439; with MCF-7 cells [1] (setting [8]), 3.311; with MCF-7 cells [1] (setting [9]) it was 3.427; in the data set with MCF-7 cells [1] (setting [10]), 2.99. Further, the “inhibitory effect on cell viability” value with MCF-7 cells [1] is on record as “inhibited cell growth more effectively during the first 7 days of incubation”. For the same compound, the “inhibition of cell growth” value in the data set with MDA-MB-231 cells worked out at 44%.
